What all share (type): cell-based, menschlich
Test [1] relates to MDA-MB-231-Brustkrebszellen. Nature of the test: Growth inhibition of MDA-MB-231 breast cancer cells in vitro (cytostatic effect). The note with it: MDA-MB-231 cells, read-out: IC50 Hemmwirkung auf das Wachstum. The source says: (§1) Die cytostatische Wirkung der erfindungsgemäßen Verbindungen wurde an zwei verschiedenen menschlichen Mammacarcinomzellinien in vitro bestimmt (M. Goldbrunner et al., J.Med.Chem. 1997,40,3525). Es handelt sich dabei um die hormonunabhängige MDA-MB-231-Zellinie und die estrogensensitive MCF-7-Linie. Die MDA-MB-231-Zellen wurden auch für die durchflusszytometrischen Analysen zur Zellzyklusverteilung herangezogen (M.J.J. Jaroszeski und R. Heller, Flow Cytometry Protocols, Humana Press, 1998, Totowa New Jersey). Besonders überraschend war, dass diese synthetischen Verbindungen häufig bereits im Konzentrationsbereich von 10 bis 100 nanomolar das Wachstum von menschlichen Tumorzellen stark hemmen, obwohl sie nur ein relativ niedriges Molekulargewicht aufweisen (MG ~ 320 - 500) (Tabelle 2 und 3, Abb. 2). Potente Therapeutika, die ebenfalls in den Zellzyklus eingreifen, besitzen Molekulargewichte im Bereich von 825 (Vincristin als Base) und 850 (Paclitaxel).

For test [2], the system named is MDA-MB-231-Mammacarcinomzellen. Nature of the test: Flow-cytometric analysis of cell cycle distribution.
From the text: as §1

Test [3] relates to MCF-7-Mammacarcinomzellen. The test is described as follows: Growth inhibition of MCF-7 mammary carcinoma cells in vitro (cytostatic effect). The following applies: MCF-7 cells, read-out: IC50 Hemmwirkung auf das Wachstum.
From the text: as §1

Where “and” joins values, the source holds several entries; their conditions need not be identical. Equal entries are not always repeated. Where two headings read alike, the source gives them in different places.

In general, IC50 refers to the point on the concentration scale where inhibition reaches its midpoint.

For the molecule `CCCCCCc1ccc2[nH]c(-c3ccc(C(F)(F)F)cc3)c(C=C(C#N)C#N)c2c1` [Verbindung 17, {5-Hexyl-2-[4-(trifluormethyl)phenyl]-indol-3yl}-methylenpropandinitril], the IC50 in test [1] was found to be 150 nM.
As for `CC[C@]1(O)C[C@H]2CN(CCc3c([nH]c4ccccc34)[C@@](C(=O)OC)(c3cc4c(cc3OC)N(C=O)[C@H]3[C@@](O)(C(=O)OC)[C@H](OC(C)=O)[C@]5(CC)C=CCN6CC[C@]43[C@@H]65)C2)C1` [Vincr., Vincristin, reference compound], in test [2] (Konz. 0.1 µM), the G1/G0 % is 6.2% and 4.5% and 5.1% and 9.3% and 10.2% and 11.4% and 8.1%; the G2/M % was 67.0% and 76.0% and 60.7% and 53.8% and 61.0% and 48.4% and 54.1%.
For the molecule `COc1cccc(-c2[nH]c3ccc(OC)cc3c2C=C(C#N)C#N)c1` [Verbindung 12, [5-Methoxy-2-(3-methoxyphenyl)-indol-3-yl]-methylenpropandinitril], the IC50 in test [1] (Homo sapiens) is 970 nM.
In the case of `COc1ccc2c(C=C(C#N)C#N)c(-c3ccc(C)cc3)[nH]c2c1` [Verbindung 3, [6-Methoxy-2-(4-methylphenyl)-indol-3-yl]-methylenpropandinitril], the half-maximal inhibitory concentration (IC50) in test [1] (Homo sapiens) was found to be 180 nM; in test [3] (Homo sapiens, MCF7) it was 250 nM.
`COc1ccc(-c2[nH]c3ccc(F)cc3c2C=C(C#N)C#N)cc1` [Verbindung 4, [5-Fluor-2-(4-methoxyphenyl)-indol-3-yl]methylenpropandinitril]: the IC50 in test [1] is 400 nM.
Turning to `CCCCc1ccc2[nH]c(-c3ccc(C)cc3)c(C=C(C#N)C#N)c2c1` [Verbindung 14, [5-Butyl-2-(4-methylphenyl)-indol-3-yl]-methylenpropandinitril], in test [1] (Homo sapiens), the half-maximal inhibitory concentration (IC50) came out at 65 nM. In test [2] (Konz. 0.05 µM), this molecule showed a Debris % of 2.5%, a G1/G0 % of 52.7%, a G2/M % of 22.4% and a S % of 24.0%. Moreover, in test [2] (Konz. 0.1 µM), the Debris % is recorded as 3.3%, the G1/G0 % is reported as 50.6%, the G2/M % was found to be 21.9% and the S % came out at 24.6%. In test [2] (Konz. 0.5 µM), this molecule returned a Debris % of 24.5%, a G1/G0 % of 16.7%, a G2/M % of 41.5% and a S % of 15.6%. In addition, in test [2] (Konz. 1.0 µM), the Debris % is 19.1%, the G1/G0 % is 6.1%, the G2/M % was 64.2% and the S % was determined as 10.3%.
As to `COc1ccc(-c2[nH]c3cc(C(C)C)ccc3c2C=C(C#N)C#N)cc1` [Verbindung 6, [6-Isopropyl-2-(4-methoxyphenyl)-indol-3-yl]methylenpropandinitril], the half-maximal inhibitory concentration (IC50) in test [1] (Homo sapiens) came out at 210 nM; in test [3] (Homo sapiens, MCF7), 310 nM.
`COc1ccc(-c2[nH]c3cc(OC)ccc3c2C=C(C#N)C#N)cc1` [Verbindung 10, [6-Methoxy-2-(4-methoxyphenyl)-indol-3-yl]methylenpropandinitril]: the IC50 in test [1] (Homo sapiens) came to 260 nM.
Consider `CCCCc1ccc2[nH]c(-c3ccc(CC)cc3)c(C=NNCc3cccnc3)c2c1` [Verbindung 26, 5-Butyl-2-(4-ethylphenyl)-indol-3-carbaldehyd-nicotinylhydrazon], for which the concentration for half-maximal inhibition (IC50) in test [1] (Homo sapiens) is 53 nM. The Debris % was 3.2% in test [2] (Konz. 0.01 µM), 2.8% in test [2] (Konz. 0.05 µM), 3.4% in test [2] (Konz. 0.1 µM) and 12.2% in test [2] (Konz. 0.5 µM). For the same molecule, the G1/G0 % in test [2] (Konz. 0.01 µM) is 51.0%; in test [2] (Konz. 0.05 µM), 51.3%; in test [2] (Konz. 0.1 µM), 49.2%; in test [2] (Konz. 0.5 µM), 9.6%. In addition, the G2/M % in test [2] (Konz. 0.01 µM) turned out to be 26.3%; in test [2] (Konz. 0.05 µM), 22.9%; in test [2] (Konz. 0.1 µM), 25.5%; in test [2] (Konz. 0.5 µM), 66.9%. Further, the S % stood at 20.2% in test [2] (Konz. 0.01 µM), 23.7% in test [2] (Konz. 0.05 µM), 23.0% in test [2] (Konz. 0.1 µM) and 11.4% in test [2] (Konz. 0.5 µM).
Regarding `CCCCc1ccc2[nH]c(-c3ccc(OC)cc3)c(C=C(C#N)C#N)c2c1` [Verbindung 7, [5-n-Butyl-2-(4-methoxyphenyl)-indol-3-yl]-methylenpropandinitril], the concentration for half-maximal inhibition (IC50) turned out to be 13 nM in test [1] (Homo sapiens) and 13 nM in test [3] (Homo sapiens, MCF7).
`CCCCc1ccc2[nH]c(-c3ccc(C(F)(F)F)cc3)c(C=NNC(=O)c3ccccn3)c2c1` [Verbindung 27, 5-n-Butyl-2-[4-(trifluormethyl)-phenyl]-indol-3-carbaldehyd-picolinylhydrazon]: the half-inhibitory concentration (IC50) in test [1] was found to be 260 nM.
With `CCCCc1ccc2[nH]c(-c3ccc(C(F)(F)F)cc3)c(C=C(C#N)C#N)c2c1` [Verbindung 13, {5-Butyl-2-[4-(trifluormethyl)-phenyl]-indol-3-yl}methylenpropandinitril], in test [1], the IC50 came to 56 nM. For the same molecule, in test [2] (Konz. 0.01 µM), the Debris % came out at 2.9%, the G1/G0 % worked out at 52.7%, the G2/M % was found to be 22.1% and the S % is given as 22.9%. In test [2] (Konz. 0.05 µM), this molecule gave a Debris % of 3.0%, a G1/G0 % of 52.3%, a G2/M % of 22.1% and a S % of 22.6%. In test [2] (Konz. 0.1 µM), this molecule gave a Debris % of 13.3%, a G1/G0 % of 52.6%, a G2/M % of 12.2% and a S % of 22.3%. Moreover, in test [2] (Konz. 0.5 µM), the Debris % amounted to 5.5%, the G1/G0 % came out at 5.4%, the G2/M % is listed as 76.3% and the S % is on record as 9.2%.
Consider `CCCCc1ccc2[nH]c(-c3ccc(C(F)(F)F)cc3)c(C=NNC(=O)c3ccncc3)c2c1` [Verbindung 28, 5-Butyl-2-[4-(trifluormethyl)-phenyl]-indol-3-carbaldehyd-isonicotinylhydrazon], for which the IC50 in test [1] was found to be 94 nM. In test [2] (Konz. 0.05 µM), the Debris % came to 3.5%, the G1/G0 % came out at 49.6%, the G2/M % was 24.2% and the S % was determined as 25.6%. In test [2] (Konz. 0.1 µM), this molecule returned a Debris % of 3.8%, a G1/G0 % of 49.3%, a G2/M % of 24.0% and a S % of 23.7%. Besides, in test [2] (Konz. 0.5 µM), the Debris % was determined as 16.7%, the G1/G0 % was found to be 16.9%, the G2/M % came to 50.2% and the S % amounted to 15.0%.
With `CCCCc1ccc2[nH]c(-c3ccc(C(F)(F)F)cc3)c(C=NNC(N)=O)c2c1` [Verbindung 30, 5-Butyl-2-[4-(trifluormethyl)-phenyl]-indol-3-carbaldehyd-semicarbazon], the concentration for half-maximal inhibition (IC50) in test [1] came to 850 nM.
Turning to `CCCc1ccc2[nH]c(-c3ccc(OC)cc3)c(C=C(C#N)C#N)c2c1` [Verbindung 5, [2-(4-Methoxyphenyl)-5-n-propyl-indol-3-yl]-methylenpropandinitril], the IC50 in test [1] (Homo sapiens) is 83 nM.
As for `CCCCc1ccc2[nH]c(-c3ccc(OC)cc3)c(C=C(C#N)C(=O)O)c2c1` [Verbindung 18, 3-[5-n-Butyl-2-(4-methoxyphenyl-)indol-3-yl]-2-cyanoacrylsäure], in test [1], the IC50 amounted to 200 nM.
As for `CCCCc1ccc2[nH]c(-c3ccc(OC)cc3)c(C=NN3C(=O)c4ccccc4C3=O)c2c1` [Verbindung 29, N-{[5-n-Butyl-2(4-methoxyphenyl)-indol-3-yl]methylenamino}-phthalimid], the IC50 in test [1] (Homo sapiens) came out at 30 nM.
Regarding `CCCCCc1ccc2[nH]c(-c3ccc(C(F)(F)F)cc3)c(C=C(C#N)C#N)c2c1` [Verbindung 16, {5-Pentyl-2-[4-(trifluormethyl)-phenyl]-indol-3-yl}-methylenepropandinitril], the 50% inhibitory concentration (IC50) in test [1] turned out to be 78 nM.
In the case of `CCCCc1ccc2[nH]c(-c3ccc(CC)cc3)c(C=C(C#N)C#N)c2c1` [Verbindung 15, [5-Butyl-2-(4-ethylphenyl)-indol-3-yl]-methylenpropandinitril], the IC50 in test [1] (Homo sapiens) is 79 nM. In test [2] (Konz. 0.01 µM), this molecule displayed a Debris % of 5.0%, a G1/G0 % of 53.6%, a G2/M % of 21.8% and a S % of 20.0%. In test [2] (Konz. 0.05 µM), this molecule displayed a Debris % of 6.6%, a G1/G0 % of 50.3%, a G2/M % of 19.8% and a S % of 24.2%. In addition, in test [2] (Konz. 0.1 µM), the Debris % worked out at 8.6%, the G1/G0 % was found to be 51.8%, the G2/M % was determined as 18.9% and the S % stood at 20.7%. In test [2] (Konz. 0.5 µM), this molecule yielded a Debris % of 23.2%, a G1/G0 % of 5.7%, a G2/M % of 62.8% and a S % of 6.3%.
Regarding `COc1ccc(-c2[nH]c3cc(Cl)c(C)cc3c2C=C(C#N)C#N)cc1` [Verbindung 2, [6-Chlor-2-(4-methoxyphenyl)-5-methyl-indol-3-yl]-methylenpropandinitril], the IC50 in test [1] was 75 nM; in test [3], 200 nM.
Regarding `COc1ccc(-c2[nH]c3ccccc3c2C=C(C#N)C#N)cc1` [Verbindung 11, [2-(4-Methoxyphenyl)-indol-3-yl]-methylenpropandinitril], the IC50 in test [1] (Homo sapiens) was 720 nM.
On to `CCCCc1ccc2[nH]c(-c3ccc(OC)cc3)c(C=NNC(=O)c3ccc(Cl)cc3)c2c1` [Verbindung 23, 5-n-Butyl-2-(4-methoxyphenyl)-indol-3-carbaldehyd-(4-chlorbenzoyl)hydrazon], for which, in test [1], the 50% inhibitory concentration (IC50) amounted to 90 nM.
For `COc1ccc(-c2[nH]c3cc(OC)ccc3c2C=NNc2ccccc2)cc1` [Verbindung 21, 6-Methoxy-2-(4-methoxyphenyl)-indol-3-carbaldehyd-phenylhydrazon], in test [1] (Homo sapiens), the concentration for half-maximal inhibition (IC50) was found to be 1000 nM.
